Test results reported in the supplement of paper PMC8671470.

Tests used:
Conditions in all cases: 72 h
KCL-22 [1] = test: cell viability (% survival relative to DMSO control, bortezomib = 0%); higher = less cytotoxic
Summary of the method: (§1)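 In 384-well plates pre-printed with compounds at 1, 10, 100, 1000 or 10000 nM, duplicate wells received cells from 10 AML and 5 CML lines at densities within the linear growth range. The plates stayed at 37 °C with 5% CO2 for 72 h before CellTiter-Glo luminescence was recorded. Each entry is averaged percent survival. Scaling placed vehicle at 100% and a 10 µM positive control at 0%.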

K-562 [2] = test: as above
Summary of the method: as §1

THP-1 [3] = test: as above
Summary of the method: as §1

ML-2 [4] = test: as above
Summary of the method: as §1

KG-1 [5] = test: as above
Summary of the method: as §1

HL-60 [6] = test: as above
Summary of the method: as §1

SHI-1 [7] = test: as above
Summary of the method: as §1

HEL [8] = test: as above
Summary of the method: as §1

MOLM-13 [9] = test: as above
Summary of the method: as §1

NOMO-1 [10] = test: as above
Summary of the method: as §1

MV4-11 [11] = test: as above
Summary of the method: as §1

KU-812 [12] = test: as above
Summary of the method: as §1

KCL-22 [13] = tested on: KCL-22
Summary of the method: (§2)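 Each of fifteen myeloid leukaemia cell lines was seeded in RPMI 1640 at a density titrated to its linear growth range. The cells were incubated for 72 h at 37 °C and 5% CO2 with compounds at five tenfold doses from 1 to 10,000 nM, in duplicate. After ATP luminescence was normalised to vehicle and to a positive control at 10 µM, four-parameter log-logistic curves were fitted. These curves gave the IC50.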

K-562 [14] = tested on: K-562
Summary of the method: as §2

Mono-Mac-6 = tested on: Mono-Mac-6
Summary of the method: as §2

THP-1 [15] = tested on: THP-1
Summary of the method: as §2

ML-2 [16] = tested on: ML-2
Summary of the method: as §2

KG-1 [17] = tested on: KG-1
Summary of the method: as §2

HL-60 [18] = tested on: HL-60
Summary of the method: as §2

BV-173 = tested on: BV-173
Summary of the method: as §2

SHI-1 [19] = tested on: SHI-1
Summary of the method: as §2

LAMA-84 = tested on: LAMA-84
Summary of the method: as §2

HEL [20] = tested on: HEL
Summary of the method: as §2

MOLM-13 [21] = tested on: MOLM-13
Summary of the method: as §2

NOMO-1 [22] = tested on: NOMO-1
Summary of the method: as §2

MV4-11 [23] = tested on: MV4-11
Summary of the method: as §2

KU-812 [24] = tested on: KU-812
Summary of the method: as §2

HL-60 [25] = test: cell viability (% survival relative to DMSO control); higher = less cytotoxic
Summary of the method: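 In 384-well plates, the full library was rescreened in duplicate on HL-60 cells in RPMI 1640 with 10% FBS, at 1–10,000 nM in five tenfold concentrations, for 72 h at 37 °C, 5% CO2. Each run also held DMSO or 100 nM of one of three metabolic inhibitors. Viability was measured by CellTiter-Glo and normalised to DMSO wells and to wells with proteasome inhibitor, present at 10 μM. Any area under the curve comes from four-parameter log-logistic fitting with drc and PharmacoGx.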

CO[C@H]1C[C@@H]2CC[C@@H](C)[C@@](O)(O2)C(=O)C(=O)N2CCCC[C@H]2C(=O)O[C@H]([C@H](C)C[C@@H]2CC[C@@H](OC(=O)C(C)(CO)CO)[C@H](OC)C2)CC(=O)[C@H](C)/C=C(\C)[C@@H](O)[C@@H](OC)C(=O)[C@H](C)C[C@H](C)/C=C/C=C/C=C/1C [Temsirolimus]
cell viability [%]
Conditions | 1 nM | 10 nM | 100 nM | 1000 nM | 10000 nM
HEL [8] | 101 | 85.3 | 77.3 | 65.2 | 46.3
HL-60 [6] | 101 | 96.8 | 90 | 73.4 | 73
K-562 [2] | 94.8 | 58.4 | 47.2 | 44.7 | 33.5
KCL-22 [1] | 95.8 | 58.5 | 47.8 | 32.5 | 23.6
KG-1 [5] | 80.8 | 47.2 | 46.5 | 39.2 | 33.6
KU-812 [12] | 71.8 | 42.9 | 44.7 | 38.8 | 36.1
ML-2 [4] | 84.3 | 71.5 | 70.4 | 60.3 | 38.2
MOLM-13 [9] | 78.5 | 41.6 | 40.9 | 29.8 | 30.6
MV4-11 [11] | 89.6 | 63.6 | 62.3 | 53.2 | 37.3
NOMO-1 [10] | 79.9 | 67.5 | 76.8 | 60.9 | 52.9
SHI-1 [7] | 93.3 | 71.2 | 80.4 | 58.8 | 59.3
THP-1 [3] | 91.6 | 75 | 76.8 | 57.3 | 55.6

Conditions | IC50 (cell viability) [nM]
BV-173 | 3.9
HEL [20] | 1150
HL-60 [18] | 148
K-562 [14] | 5.35
KCL-22 [13] | 13.3
KG-1 [17] | 2.05
KU-812 [24] | 1.11
LAMA-84 | 20.8
ML-2 [16] | 2590
MOLM-13 [21] | 1.98
MV4-11 [23] | 61.1
Mono-Mac-6 | 4.87
NOMO-1 [22] | 4420
SHI-1 [19] | 28.2
THP-1 [15] | 53.9

cell viability [%], HL-60 [25]
Conditions | 0.001 µM | 0.01 µM | 0.1 µM | 1 µM | 10 µM
co-treatment: AZD3965 100 nM | 99.9 | 97.186 | 101 | 92.3 | 86.7
co-treatment: DMSO vehicle | 101 | 96.3 | 97.65 | 90.3 | 100
co-treatment: GSK2194069 100 nM | 92.3 | 87.52 | 103.1 | 83.261 | 96.5
co-treatment: pictilisib 100 nM | 94.1 | 81 | 99.1 | 81.02 | 91.4
